This is an account of results in patent US8859529B2, “Compounds for the treatment of inflammatory disorders” (Merck Sharp & Dohme Corp., priority 2008, dated 2014).

Data set [1] has as its system TNF-α production from human whole blood. Nature of the data set: Inhibition of TNF-α production from human whole blood (hWBA). The conditions noted are these: human whole blood diluted 1:1, 1 h pre-incubation, LPS, 3.5 h, TNF-α by ELISA; N/A = Not Active. It counts as cell-based. The method, then: The compounds' ability to inhibit TACE activity can also be determined in human whole blood using the assay conditions described n Example 15 below.
Human whole blood was diluted 1:1 with serum free medium (RPMI, L-glutamine, Pen-Strep, HEPES) and incubated with a test compound in a final volume of 360 μl for 1 h at 37° C. Forty microliters of LPS (10 μg/mL) was then added. Supernatant was collected after 3.5 h incubation and the concentration of TNF-α was determined by ELISA (R&D Systems). The concentration of the test compound which inhibits 50% of the amount of TNF-α from the untreated control was determined.
Background: In an ELISA, binding on a coated surface is turned into a signal by an enzyme label.

Data set [2] is described as follows: Area under the curve determinations of plasma levels in rats (rrAUC). It counts as in vivo. Particulars: rapid rat AUC of the drug (parent) in plasma; oral 10 mg/kg, fasted rats, blood 0.5-6 h post-dosing.

As for `COc1ccc2c(c1)C(=O)N(C[C@]1(c3cc4cnccc4o3)C(=O)N(COC(=O)OCC3COCO3)C(=O)N1C(=O)OCC1COCO1)C2` (some centres unmarked) [Compound 86], in data set [1], inhibition was half-maximal at 5.41 µM (IC50). Besides, the “PK (rrAUC) parent” value in data set [2] worked out at 0.056 µM·h.
